Test results published in patent publication US20200071351A1, “TACCALONOLIDE MICROTUBULE STABILIZERS” (THE BOARD OF REGENTS OF THE UNIVERSITY OF TEXAS SYSTEM, priority 2016, published 2020).
pIC50: −log10 of the molar value. Where two headings read alike, the source gives them in different places.

How the values were obtained:
HeLa cells [1] = test: Inhibition of cellular proliferation, SRB assay, HeLa cells; type: cell-based; conditions: for pIC50: read-out: IC50; for activity at concentrations as high as 30,000 nM: up to 30,000 nM
Experimental: The ability of the compounds to initiate cytotoxicity was also determined. […] The determination of IC50 values was performed on taccalonolide material after NMR analysis and subsequent lyophilization. Ethanol or DMSO was used as the vehicle for all cellular studies.
The antiproliferative potencies of the taccalonolides were evaluated in HeLa cells using the SRB assay.

HeLa cells [2] = test: Mitotic spindle structures, indirect immunofluorescence; type: cell-based; conditions: 18 h, 125 nM AF, 200 nM AI, 35 nM AJ
Experimental: Cellular microtubules in interphase and mitotic HeLa cells were visualized using indirect immunofluorescence techniques as previously described (Tinley et al., 2003). […] Representative images of interphase and mitotic cells were acquired using a Nikon Eclipse 80i fluorescence microscope and compiled using NIS Elements AR 3.0 software.
The effects of the taccalonolides on mitotic spindle structures were evaluated to test whether they caused mitotic spindle defects leading to cell cycle arrest. β-tubulin and DNA were visualized in HeLa cells by indirect immunofluorescence and DAPI staining, respectively. […] These mitotic cells contained multiple abnormal mitotic spindles, which is another common effect of microtubule stabilizing agents (FIGS. 4A-D).
The microtubule structures in mitotic cells were visualized by indirect immunofluorescence using a β-tubulin antibody.

[3] = HeLa cells, SRB assay, parent taccalonolide
[4] = Homo sapiens, HeLa, HeLa cells, SRB assay, parent taccalonolide

Molecule	pIC50 (HeLa cells [1]; [3])	pIC50 (HeLa cells [1]; [4])	other results
CC(=O)O[C@H]1C[C@H]2[C@H]([C@@H]3[C@@H](O)[C@@H]4[C@H]([C@H](C)C=C5OC(=O)[C@@](C)(O)[C@@]54C)[C@]31C)[C@@H](O)C(=O)[C@H]1C[C@@H]3O[C@@H]3[C@H](OC(=O)CC(C)C)[C@@]12C [Taccalonolide AI]	7.33	–	effect on mitotic spindle structures (HeLa cells [2]): mitotic arrest of cells with multiple abnormal mitotic spindles
CC(=O)O[C@@H]1[C@H]2[C@@H]3[C@@H](O)C(=O)[C@H]4C[C@@H]5O[C@@H]5[C@H](OC(C)=O)[C@]4(C)[C@H]3C[C@H](OC(C)=O)[C@]2(C)[C@@H]2[C@@H]1[C@]1(C)C(=C[C@H]2C)OC(=O)[C@@]1(C)O [Taccalonolide E, reference compound]	–	4.40	–
CC(=O)O[C@H]1[C@@H]2[C@H]([C@H](C)C=C3OC(=O)[C@@](C)(O)[C@@]32C)[C@]2(C)[C@@H]1C1=C(O)C(=O)[C@H]3C[C@@H]4O[C@@H]4[C@H](OC(C)=O)[C@]3(C)[C@H]1[C@H](OC(C)=O)[C@@H]2OC(C)=O [Taccalonolide H2]	6.14	–	more potent than taccalonolide A (HeLa cells [1]; HeLa IC50 ratio): 7.4 fold
CC(=O)O[C@H]1[C@H]2[C@@H](C(=O)[C@H](O)[C@H]3C[C@@H]4O[C@@H]4[C@H](OC(C)=O)[C@]23C)[C@@H]2[C@@H](O)[C@@H]3[C@H]([C@H](C)C=C4OC(=O)[C@@](C)(O)[C@@]43C)[C@@]2(C)[C@H]1OC(C)=O [Taccalonolide I, reference compound]	–	< 5.00	–
CC(=O)O[C@H]1C[C@H]2[C@H]([C@@H]3[C@@H](O)[C@@H]4[C@H]([C@H](C)C=C5OC(=O)[C@@](C)(O)[C@@]54C)[C@]31C)[C@@H](O)C(=O)[C@H]1C[C@@H]3O[C@@H]3[C@H](OC(C)=O)[C@@]12C [Taccalonolide N, reference compound]	–	5.07	–
CC(=O)O[C@@H]1[C@H]2[C@@H]3[C@@H](OC(C)=O)C(=O)[C@@]4(O)C[C@@H]5O[C@@H]5[C@H](OC(C)=O)[C@]4(C)[C@H]3C[C@H](OC(C)=O)[C@]2(C)[C@@H]2[C@@H]1[C@]1(C)C(=C[C@H]2C)OC(=O)[C@@]1(C)O [Taccalonolide R, reference compound]	–	4.88	pIC50 (HeLa cells [1]; Homo sapiens, HeLa): 4.89
CC(=O)O[C@@H]1[C@H]2[C@@H]3[C@@H](O)C(=O)[C@H]4C[C@@H]5O[C@@H]5[C@H](OC(=O)C(C)C)[C@]4(C)[C@H]3C[C@H](OC(C)=O)[C@]2(C)[C@@H]2[C@@H]1[C@]1(C)C(=C[C@H]2C)OC(=O)[C@@]1(C)O [Taccalonolide S, reference compound]	–	8.05	–
CC(=O)O[C@@H]1[C@H]2[C@@H]3[C@@H](OC(C)=O)C(=O)[C@@]4(O)C[C@@H]5O[C@@H]5[C@H](OC(=O)CC(C)C)[C@]4(C)[C@H]3C[C@H](OC(C)=O)[C@]2(C)[C@@H]2[C@@H]1[C@]1(C)C(=C[C@H]2C)OC(=O)[C@@]1(C)O [Taccalonolide T, reference compound]	–	6.47	–
Taccalonolide AG	7.49	–	–
Taccalonolide AH	6.80	–	–
Taccalonolide AL	4.74	–	–
Taccalonolide AP	< 4.52	–	–
Taccalonolide AQ	< 4.52	–	activity at concentrations as high as 30,000 nM (HeLa cells [1]; HeLa cells): little to no activity
Taccalonolide AR	< 4.52	–	activity at concentrations as high as 30,000 nM (HeLa cells [1]; HeLa cells): little to no activity
Taccalonolide AS	< 5.00	–	activity at concentrations as high as 30,000 nM (HeLa cells [1]; HeLa cells): little to no activity
